Measurements taken from PubChem BioAssay AID248 (DTP/NCI, 2004).
Where “and” joins values, the source holds several entries; their conditions need not be identical. Equal values may be shown once. Toxic doses and inconclusive results are not listed. No stated cut-off is given here; in the data, active means T/C of 150% or more; inactive means T/C below 125%.

System: L1210 leukemia ip in BDF1 mice, survival T/C
Assay: NCI In Vivo Anticancer Drug Screen. Data for tumor model L1210 Leukemia (intraperitoneal) in B6D2F1 (BDF1) mice
Conditions: endpoint: mean survival time, higher = longer survival
Outline: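 Ratio derived from survival: compound-dosed mice over vehicle-dosed mice, all bearing a transplantable tumor.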

[1] = dose: 100.0 mg/kg/injection, schedule: Q04DX003 (ip), vehicle: other
[2] = dose: 100.0 mg/kg/injection, schedule: Q01DX001 (ip), vehicle: carboxymethylcellulose (CMC)
[3] = dose: 200.0 mg/kg/injection, schedule: Q01DX001 (ip), vehicle: carboxymethylcellulose (CMC)
[4] = dose: 400.0 mg/kg/injection, schedule: Q01DX001 (ip), vehicle: carboxymethylcellulose (CMC)
[5] = dose: 100.0 mg/kg/injection, schedule: Q01DX009 (ip), vehicle: saline with Tween-80
[6] = dose: 400.0 mg/kg/injection, schedule: Q01DX009 (ip), vehicle: saline with Tween-80
[7] = dose: 100.0 mg/kg/injection, schedule: Q01DX001 (ip), vehicle: saline
[8] = dose: 200.0 mg/kg/injection, schedule: Q01DX001 (ip), vehicle: saline
[9] = dose: 400.0 mg/kg/injection, schedule: Q01DX001 (ip), vehicle: saline
[10] = dose: 100.0 mg/kg/injection, schedule: Q04DX002 (ip), vehicle: Klucel (hydroxypropylcellulose) (HPC)
[11] = dose: 200.0 mg/kg/injection, schedule: Q04DX002 (ip), vehicle: Klucel (hydroxypropylcellulose) (HPC)
[12] = dose: 400.0 mg/kg/injection, schedule: Q04DX002 (ip), vehicle: Klucel (hydroxypropylcellulose) (HPC)

Measured: T/C

CCCCOP(=O)(N1CC1CC)N1CC1CC (stereo unspecified)
inactive: dose: 6.25 mg/kg/injection, schedule: Q01DX009 (ip), vehicle: other 99 % of control | dose: 6.25 mg/kg/injection, schedule: Q04DX003 (ip), vehicle: other 95 % of control | dose: 12.5 mg/kg/injection, schedule: Q01DX009 (ip), vehicle: other 95 % of control | dose: 12.5 mg/kg/injection, schedule: Q04DX003 (ip), vehicle: other 97 % of control | dose: 25.0 mg/kg/injection, schedule: Q01DX009 (ip), vehicle: other 92 % of control | dose: 25.0 mg/kg/injection, schedule: Q04DX003 (ip), vehicle: other 92 % of control | dose: 50.0 mg/kg/injection, schedule: Q04DX003 (ip), vehicle: other 94 % of control | [1] 95 % of control

O=[N+]([O-])c1cc(C(F)(F)F)cc([N+](=O)[O-])c1N/N=C/c1ccc(Cl)cc1
inactive: dose: 12.5 mg/kg/injection, schedule: Q01DX009 (ip), vehicle: carboxymethylcellulose (CMC) 95 % of control and 102 % of control | dose: 25.0 mg/kg/injection, schedule: Q01DX009 (ip), vehicle: carboxymethylcellulose (CMC) 97 % of control and 88 % of control | [2] 100 % of control and 103 % of control | dose: 100.0 mg/kg/injection, schedule: Q04DX002 (ip), vehicle: carboxymethylcellulose (CMC) 100 % of control and 105 % of control | dose: 100.0 mg/kg/injection, schedule: Q04DX003 (ip), vehicle: carboxymethylcellulose (CMC) 92 % of control and 101 % of control | [3] 103 % of control and 91 % of control | dose: 200.0 mg/kg/injection, schedule: Q04DX002 (ip), vehicle: carboxymethylcellulose (CMC) 98 % of control and 90 % of control | dose: 200.0 mg/kg/injection, schedule: Q04DX003 (ip), vehicle: carboxymethylcellulose (CMC) 94 % of control and 96 % of control | [4] 103 % of control and 105 % of control | dose: 400.0 mg/kg/injection, schedule: Q01DX009 (ip), vehicle: carboxymethylcellulose (CMC) 86 % of control and 90 % of control | dose: 400.0 mg/kg/injection, schedule: Q04DX002 (ip), vehicle: carboxymethylcellulose (CMC) 86 % of control and 87 % of control | dose: 400.0 mg/kg/injection, schedule: Q04DX003 (ip), vehicle: carboxymethylcellulose (CMC) 92 % of control and 96 % of control

O=C(O)C1CC2CCC1C2 (stereo unspecified)
inactive: dose: 100.0 mg/kg/injection, schedule: Q01DX009 (ip), vehicle: saline 100 % of control | dose: 200.0 mg/kg/injection, schedule: Q01DX009 (ip), vehicle: saline 104 % of control | dose: 400.0 mg/kg/injection, schedule: Q01DX009 (ip), vehicle: saline 92 % of control

O=C(CCCCC(=O)N/N=C/c1ccncc1)N/N=C/c1ccncc1
inactive: dose: 25.0 mg/kg/injection, schedule: Q01DX009 (ip), vehicle: saline with Tween-80 94 % of control | dose: 50.0 mg/kg/injection, schedule: Q01DX009 (ip), vehicle: saline with Tween-80 91 % of control | [5] 96 % of control and 89 % of control | [6] 91 % of control

CCOC(=O)C(NC(=O)c1ccccc1)C(=O)OCC
inactive: dose: 50.0 mg/kg/injection, schedule: Q01DX001 (ip), vehicle: saline 96 % of control | [7] 96 % of control | [8] 96 % of control | [9] 96 % of control

O=[N+]([O-])c1ccccc1SSc1ccccc1[N+](=O)[O-]
inactive: dose: 50.0 mg/kg/injection, schedule: Q01DX001 (ip), vehicle: carboxymethylcellulose (CMC) 105 % of control | [2] 94 % of control | [5] 95 % of control | [3] 109 % of control | dose: 200.0 mg/kg/injection, schedule: Q01DX009 (ip), vehicle: saline with Tween-80 98 % of control | [4] 100 % of control | [6] 98 % of control

CCCCCCCCCCCCCCCCCCNC(=O)c1c(Br)c(Br)cc(Br)c1C(=O)O
inactive: dose: 25.0 mg/kg/injection, schedule: Q04DX002 (ip), vehicle: Klucel (hydroxypropylcellulose) (HPC) 104 % of control | dose: 50.0 mg/kg/injection, schedule: Q04DX002 (ip), vehicle: Klucel (hydroxypropylcellulose) (HPC) 93 % of control | [10] 96 % of control | [11] 98 % of control and 87 % of control | [12] 90 % of control

c1ccc(C(c2ccccc2)c2ccccn2)cc1
inactive: dose: 50.0 mg/kg/injection, schedule: Q04DX002 (ip), vehicle: other 95 % of control | [10] 98 % of control | dose: 100.0 mg/kg/injection, schedule: Q04DX002 (ip), vehicle: other 95 % of control | [1] 103 % of control | [11] 102 % of control | dose: 200.0 mg/kg/injection, schedule: Q04DX002 (ip), vehicle: other 95 % of control | dose: 200.0 mg/kg/injection, schedule: Q04DX003 (ip), vehicle: other 117 % of control | [12] 106 % of control | dose: 400.0 mg/kg/injection, schedule: Q04DX003 (ip), vehicle: other 111 % of control

CC1(C)N=C(N)N=C(N)N1c1ccc(OCCNC(=O)c2ccc(S(=O)(=O)F)cc2)c(Cl)c1
inactive: dose: 18.75 mg/kg/injection, schedule: Q04DX003 (ip), vehicle: saline with Tween-80 103 % of control | dose: 37.5 mg/kg/injection, schedule: Q04DX003 (ip), vehicle: saline with Tween-80 108 % of control | dose: 75.0 mg/kg/injection, schedule: Q04DX003 (ip), vehicle: saline with Tween-80 104 % of control

COC1=NS(=O)(=O)C2CCCCCCC2O1 (stereo unspecified)
inactive: dose: 25.0 mg/kg/injection, schedule: Q01DX001 (ip), vehicle: Klucel (hydroxypropylcellulose) (HPC) 102 % of control | dose: 25.0 mg/kg/injection, schedule: Q04DX003 (ip), vehicle: Klucel (hydroxypropylcellulose) (HPC) 92 % of control | dose: 50.0 mg/kg/injection, schedule: Q01DX001 (ip), vehicle: Klucel (hydroxypropylcellulose) (HPC) 94 % of control | dose: 50.0 mg/kg/injection, schedule: Q04DX003 (ip), vehicle: Klucel (hydroxypropylcellulose) (HPC) 95 % of control | dose: 100.0 mg/kg/injection, schedule: Q01DX001 (ip), vehicle: Klucel (hydroxypropylcellulose) (HPC) 94 % of control | dose: 100.0 mg/kg/injection, schedule: Q04DX003 (ip), vehicle: Klucel (hydroxypropylcellulose) (HPC) 95 % of control

NC(=O)c1nccc2ccccc12
inactive: [7] 110 % of control | [8] 107 % of control | [9] 98 % of control

CC(=O)Oc1ccc2ccccc2c1/C=C/c1ccncc1
inactive: dose: 6.25 mg/kg/injection, schedule: Q01DX009 (ip), vehicle: saline 104 % of control | dose: 12.5 mg/kg/injection, schedule: Q01DX009 (ip), vehicle: saline 102 % of control | dose: 25.0 mg/kg/injection, schedule: Q01DX009 (ip), vehicle: saline 96 % of control and 105 % of control | dose: 25.0 mg/kg/injection, schedule: Q04DX003 (ip), vehicle: saline 115 % of control | dose: 50.0 mg/kg/injection, schedule: Q01DX009 (ip), vehicle: saline 95 % of control | dose: 50.0 mg/kg/injection, schedule: Q04DX003 (ip), vehicle: saline 93 % of control | dose: 100.0 mg/kg/injection, schedule: Q04DX003 (ip), vehicle: saline 94 % of control and 90 % of control
